In PMC7914367, “Dual-ligand supramolecular nanofibers inspired by the renin-angiotensin system for the targeting and synergistic therapy of myocardial infarction” (Theranostics, 2021):

What was measured:
NRCMs [1] = assay: TUNEL staining of OGD NRCMs; assay type: cell-based, rat; conditions: 10 μM, 2-3 h, OGD group 26.70%, n = 3
[2] = system: p-AKT, Bax/Bcl-2, cleaved caspase-3; assay: Western blot of apoptosis-related proteins in OGD NRCMs; assay type: cell-based, rat; conditions: vs OGD group, n = 3
Description: AKT, p-AKT, Bax, Bcl-2, cleaved caspase-3, P65, TGF-β1, Histone3, AT1R, GAPDH were quantified by western blot analysis. Protein concentration was determined using the bicinchoninic acid (BCA) method. SDS-PAGE was conducted to separate the proteins in each sample (30-50 µg of protein per lane), which were subsequently transferred to a PVDF membrane. The membranes were treated with blocking buffer for 2 h at room temperature and then incubated overnight with primary antibodies at 4 °C. The primary antibodies used included anti-Phospho-AKT (1:1000 dilution), anti-AKT (1:1000 dilution), anti-caspase-3 (1:1000 dilution), anti-Bcl-2 (1:100 dilution), anti-Bax (1:1000 dilution), anti-P65 (1:800 dilution), anti-TGF-β1 (1:1000 dilution), anti-Histone 3 (1:1000 dilution) and anti-AGTR1 (1:1000 dilution). The results were normalized by comparison to parallel western blots for glyceraldehyde 3-phosphate dehydrogenase (GAPDH, 1:8000 dilution). Optical density was measured using an image processing analysis program.

NRCMs [3] = assay: Intracellular ROS with DHE probe; assay type: cell-based, rat; conditions: OGD NRCMs, 10 μM; OGD group 5.72-fold; n = 3
Description: The cells were counterstained with DAPI and were observed under a fluorescence microscope (details in Supporting Information). […]
(§1) manufacturer ’s protocol. Cells were then stained with DAPI. The TUNEL positive cells were observed by the fluorescence microscope (λexc = 488 nm for TUNEL, λexc = 405 […]
Intracellular ROS was quantified with dihydroethidium (DHE). After incubated with different treatments under OGD condition, NRCMs were then cultured with DMEM medium containing […] of DHE for 30 min at 37 ℃ and then wash ed twice with PBS. Nucleuses of NRCMs were dyed by Hoechst 33342 stain solution for 30 min at 37 °C. Intracellular ROS were detected by the fluorescence microscope (λexc = 532 nm for DHE, λexc = 405 nm for Hoechst 33342).
Adult male C57BL/6 mice (20-30g, 8-10 weeks old) were purchased from the laboratory animal center of Southern Medical University. For the MI model, mice were subjected to permanent l eft anterior descending (LAD) ligation as described previously. In brief, the animals were anesthetized using 1.5% sodium pentobarbital (50 mg/kg) through intraperitoneal i njection, and mice were ventilated with a rodent ventilator subsequently. We exposed mice hearts by the fourth intercostal space incision and a subsequent pericardium removal. The LAD was ligated using an 8-0-prolene suture permanently to perform MI generation. […]

NRCFs = assay: Conditioned medium interference experiments (TGF-β1 in CM, α-SMA in NRCFs); assay type: cell-based, rat; conditions: NRCFs cultured 24 h with conditioned medium of pretreated OGD NRCMs, immunofluorescence, n = 3
Description: Next, the cells were blocked by incubating with goat serum for 30 min and incubated with primary antibodies overnight at 4 °C. The primary antibodies used here included anti-AT1R (1:200 dilution), anti-cTNT (1:500 dilution), anti-P65 (1:800 dilution), and anti‐α-SMA (1:400 dilution). The cells were incubated with FITC-labeled Goat Anti-Rabbit IgG (1:200 dilution) or Cy3-labeled Goat Anti-Mouse IgG (1:200 dilution) for 2 h at room temperature. The cells were counterstained with DAPI and imaged using a fluorescence microscope (Leica Dmi8, Germany).
CM from untreated or compound-treated cells were produced as follows. NRCMs were seeded in 35 mm culture dishes at 1 × 10^6 cells per well and incubated in growth medium containing different compounds or in media devoid of compounds for 12 h. Next, the media were replaced with serum-free medium, and the cells were cultured under hypoxia for 6 h. The CM was collected and centrifuged to culture NRCFs after a 12 h starvation period. Immunofluorescence of α-SMA was analyzed as per protocol after 24 h.
(§2) The serum and CM were collected at the indicated time points from the different groups of mice. The levels of TNF-α, IL-6, ALT, Cre, and TGF-β1 were measured using ELISA kits according to the manufacturer's protocol. The absorbance was measured at 450 nm using a microplate reader.

MI mouse model [4] = assay: Echocardiography post-MI; assay type: in vivo, C57BL/6 mice; conditions: MI mice, 4th week, tail vein every 2 days (TDCNfs 1084.16, T+A 328.96+576, Tel 328.96, Ang1-7 576 μg/kg); MI group approx 16%; n = 5
Description: (§3) Adult male C57BL/6 mice (20-30 g, 8-10 week) were purchased from the laboratory animal center of Southern Medical University, China. The protocols were approved according to the Zhujiang Hospital of Southern Medical University animal care and use committee guidelines, which conform to the guide for the care and use of laboratory animals published by the US National Institutes of Health (8th edition, 2011). […] Next, 100 µL of different drugs were administered intravenously through tail vein injection every 2 days for 3 weeks, while the mice in the Sham and MI groups were treated with an equal volume of PBS.
Twenty-eight days after surgery, the mice were anesthetized through the inhalation of isoflurane (1-1.5%) in O2 and echocardiographic examination was performed using a Vevo 2100 System equipped with a 30 MHz transducer (FUJIFILM Visual Sonics, Canada). The LVEDD, LVESD, LVEFs, and LVFS were measured. All measurements were repeated for at least three consecutive pulsation cycles and the data were averaged for statistical analysis. […]
as §1
Intracellular ROS was quantified with dihydroethidium (DHE). […] Intracellular ROS were detected by the fluorescence microscope (λexc = 532 nm for DHE, λexc = 405 nm for Hoechst 33342). […]

MI mouse model [5] = assay: Masson's trichrome staining, infarct size; assay type: in vivo, C57BL/6 mice; conditions: MI mice, 4 weeks, collagen area/LV area, MI group 36.60%, vehicle 1219.84 μg/kg, n = 5
Description: as §3
The mice were sacrificed at 4 weeks after the induction of MI, and hearts and major organs were harvested and fixed in 4% paraformaldehyde overnight and embedded in paraffin. The hearts were sectioned to 5 µm along the short axis transversely across the infarct zone. The major organs were sectioned to 5 µm along the short axis. Following deparaffinization and dehydration, the samples underwent H&E and Masson's trichrome staining. The sections were observed under a microscope to evaluate the therapeutic effect and safety of the drugs. The collagen and LV areas were measured using the Image-Pro Plus software (version 6.0; Media Cybernetics, Silver Spring, MD, USA). Infarct size (%) was calculated as the ratio of the collagen area to the LV area.

MI mouse model [6] = assay: In vivo mechanism: caspase-3 IHC, α-SMA immunofluorescence, type I collagen, TGF-β1, serum cytokines; parameters: species or system C57BL/6 mice; conditions: MI mice, n = 5
Description: Frozen sections were prepared in vivo, as described previously. For drugs distribution, near-infrared laser imager (GE Amersham Typhoon, Sweden) was used to capture full cross section of hearts. For co-localization experiments, the mice hearts were dissected 24 h post-injection of drugs. Anti-AT1R primary antibody (1:200 dilution) was used as the primary antibody. For fibrosis investigation, the frozen sections were incubated with primary antibodies against α-SMA (1:400 dilution). The staining signals were visualized using FITC-labeled Goat Anti-Rabbit IgG (1:200 dilution) or Cy3-labeled Goat Anti-Rabbit IgG (1:200 dilution). The sections were counterstained with DAPI and examined under a laser confocal scanning microscope (Leica TCS SP8, Germany).
The heart tissues were fixed in 4% paraformaldehyde, dehydrated in ethanol, cleared in xylene, and embedded in paraffin. The samples were then cut into 6 μm sections on a microtome and deparaffinized. The sections were blocked by incubating with 1% BSA at room temperature for 30 min and then incubated overnight with anti-cleaved caspase-3 (1:700 dilution), anti-AT1R (1:100 dilution), anti-Collagen I (1:200 dilution) at 4 °C. Next, the sections were washed and incubated with secondary antibodies (1:500 dilution) at room temperature. The tissue sections were incubated with diaminobenzidine and counterstained with hematoxylin, dehydrated, and mounted before viewing under a microscope.
as §2

CCCc1nc2c(C)cc(-c3nc4ccccc4n3C)cc2n1Cc1ccc(-c2ccccc2C(=O)O)cc1 [Tel, telmisartan]
TUNEL-positive NRCMs (NRCMs [1]): 17.62%
decrease of Bax/Bcl-2 value [2]: 76.3%
increase of p-AKT expression [2]: more than 10 fold
fluorescence intensity of superoxide anion (DHE) compared to the control group (NRCMs [3]): 3.23 fold
reduction of α-SMA levels in NRCFs compared to the OGD group (NRCFs): 20.48%
left ventricular ejection fractions (LVEFs) (MI mouse model [4]): 29.54%
infarct size (MI mouse model [5]): 25.80%
α-SMA expression in the non-infarcted area (MI mouse model [6]; 4 weeks post-treatment, immunofluorescence): inhibited to a certain extent
caspase-3 expression in infarct border zone (MI mouse model [6]; immunohistochemistry): reduced moderately
